In one data set the target is T1, Carboxypeptidase B (Homo sapiens, UniProt P15086).
T1 sequence (P15086 whole entry): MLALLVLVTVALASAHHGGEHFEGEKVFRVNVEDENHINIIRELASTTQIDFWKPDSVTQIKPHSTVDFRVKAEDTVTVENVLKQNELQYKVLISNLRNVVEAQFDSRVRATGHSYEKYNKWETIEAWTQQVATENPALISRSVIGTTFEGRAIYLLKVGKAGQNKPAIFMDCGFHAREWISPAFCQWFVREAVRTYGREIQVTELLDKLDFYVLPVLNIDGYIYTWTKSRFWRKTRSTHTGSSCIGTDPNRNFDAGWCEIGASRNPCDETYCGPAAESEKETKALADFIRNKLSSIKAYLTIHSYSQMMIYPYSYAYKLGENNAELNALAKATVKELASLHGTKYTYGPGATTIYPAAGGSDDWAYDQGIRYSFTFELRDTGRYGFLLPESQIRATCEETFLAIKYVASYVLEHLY
The data set is described as follows: Inhibition of human pancreatic carboxypeptidase B.

Another data set has as its target T2, Carboxypeptidase B2 (Homo sapiens, UniProt Q96IY4).
T2 sequence (Q96IY4 whole entry): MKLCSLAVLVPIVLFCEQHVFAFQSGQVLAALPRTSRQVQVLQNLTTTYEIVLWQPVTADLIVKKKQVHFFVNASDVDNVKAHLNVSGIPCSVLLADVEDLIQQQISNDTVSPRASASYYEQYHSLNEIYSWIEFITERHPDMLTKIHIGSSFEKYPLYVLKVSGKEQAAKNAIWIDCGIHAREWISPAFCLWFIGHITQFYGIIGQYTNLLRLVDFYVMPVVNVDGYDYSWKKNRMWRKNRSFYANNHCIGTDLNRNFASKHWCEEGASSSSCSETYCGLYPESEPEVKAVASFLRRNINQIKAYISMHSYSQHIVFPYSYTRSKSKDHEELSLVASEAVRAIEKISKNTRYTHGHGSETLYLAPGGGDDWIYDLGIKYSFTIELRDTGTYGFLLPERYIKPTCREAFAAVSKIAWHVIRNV
Put plainly: Inhibition of active form of human recombinant TAFI assessed as substrate turnover every 15 seconds for 30 mins.

Data set [1] can be described thus: Oral bioavailability in rat at 5 mg/kg. It counts as ADME, organism-based. To be noted: in vivo.
Data set [2] in a line: Half life in rat at 2 mg/kg, iv. It counts as ADME, organism-based. The arrangement: dose 2 mg/kg, route intravenous. Particulars: in vivo.
The nature of data set [3]: Clearance in rat at 2 mg/kg, iv. Further details: dose 2 mg/kg, route intravenous. Particulars: in vivo. It counts as ADME, organism-based.
Data set [4] in a line: Volume of distribution in rat at 2 mg/kg, iv. In kind it is ADME, organism-based. Further details: dose 2 mg/kg, route intravenous. Particulars: in vivo.
In the next data set the test system is Plasma. Put plainly: Plasma protein binding in rat. It counts as ADME, cell-free.
Data set [5] is described as follows: Half life in rat at 5 mg/kg, po. In kind it is ADME, organism-based. Further details: dose 5 mg/kg, route oral. Particulars: in vivo.
A short description of data set [6]: Half life in human at 10 mg/kg, iv. In kind it is ADME, organism-based. Further details: dose 10 mg/kg, route intravenous. To be noted: in vivo.
Data set [7] is described as follows: Clearance in human at 10 mg/kg, iv. To be noted: in vivo. Further details: dose 10 mg/kg, route intravenous. In kind it is ADME, organism-based.
Data set [8] in a line: Volume of distribution in human at 10 mg/kg, iv. The arrangement: dose 10 mg/kg, route intravenous. In kind it is ADME, organism-based. To be noted: in vivo.

Consider twelve molecules from ChEMBL document CHEMBL1153173, “Oxygenated analogues of UK-396082 as inhibitors of activated thrombin activatable fibrinolysis inhibitor” (Bioorg Med Chem Lett, 2010).

Molecules are shown by their SMILES.

As usually defined, the Ki is a dissociation constant, usually derived from enzyme kinetics or from competition with a known ligand. On to `CCCn1cnc(C[C@H](NCCN)C(=O)O)c1`, for which the inhibitory constant (Ki) amounted to 1160 nM on Carboxypeptidase B and 150 nM on Carboxypeptidase B2.

Turning to `NCCO[C@@H](Cc1cn(-c2ccccc2)cn1)C(=O)O`, the Ki at Carboxypeptidase B amounted to 27 nM; at Carboxypeptidase B2, 3.5 nM.

Consider `CC(C)(C)c1ccc(-n2cnc(C[C@H](OCCN)C(=O)O)c2)cc1`, for which the Ki at Carboxypeptidase B worked out at 49 nM; at Carboxypeptidase B2, 5.7 nM.

As for `C[C@H](CN)O[C@@H](Cc1cn(-c2ccccn2)cn1)C(=O)O`, the Ki stood at 265 nM on Carboxypeptidase B and 5.8 nM on Carboxypeptidase B2.

On to `NCCO[C@@H](Cc1cn(CCC2CCCCC2)cn1)C(=O)O`, for which the results for the Ki at Carboxypeptidase B and on Carboxypeptidase B2 were 27 nM and 8.2 nM, respectively.

For the molecule `C[C@H](CN)O[C@@H](Cc1cn(-c2ccccc2)cn1)C(=O)O`, the Ki at Carboxypeptidase B stood at 240 nM; at Carboxypeptidase B2, 7.5 nM.

With `CCCn1cnc(C[C@@H](OCCN)C(=O)O)c1`, the Ki at Carboxypeptidase B and on Carboxypeptidase B2 was > 10000 nM each time.

A word on the bioavailability: it is dose-corrected exposure relative to a reference, in per cent. Lower therefore signals poor availability. As usually defined, the half-life is how long it takes for the measured level to halve. Broadly, the clearance is a measure of how efficiently the substance is removed, as volume per time. A higher clearance goes with a high capacity for elimination. The term Vd denotes a proportionality between amount in the body and measured concentration, not a real space. Read a high Vd as extensive tissue distribution. `CCCn1cnc(C[C@H](OCCN)C(=O)O)c1` registered a bioavailability in data set [1] of 9.8%. Besides, the inhibition constant (Ki) at Carboxypeptidase B stood at 238 nM; at Carboxypeptidase B2, 6.7 nM. Besides, the results for the half-life in [2] and in data set [5] were 2.7 h and 2.1 h, respectively. Further, the clearance in [3] came out at 13.4 mL/min/kg. In data set [4], this molecule gave a volume of distribution (Vd) of 3.1 L/kg. In the data set on Plasma, this molecule came in with a PPB of 0%.

As to `CCCn1cnc(CC(OCCNC)C(=O)O)c1` (racemic), the inhibitory constant (Ki) is > 10000 nM on Carboxypeptidase B and 407 nM at Carboxypeptidase B2.

Take `CCCCn1cnc(CC(OCCN)C(=O)O)c1` (racemic): the Ki at Carboxypeptidase B amounted to 360 nM; on Carboxypeptidase B2, 15 nM.

`Cc1ccccc1-n1cnc(CC(OCCN)C(=O)O)c1` (racemic): the inhibition constant Ki on Carboxypeptidase B stood at 2720 nM; on Carboxypeptidase B2, 65 nM.

Regarding `CCCn1cnc(C[C@H](CCCN)C(=O)O)c1` [UK-396,082], the bioavailability in data set [1] was 10.6%. In addition, the figures for the inhibitory constant (Ki) at Carboxypeptidase B and at Carboxypeptidase B2 were 206 nM and 16 nM, respectively. Also, the half-life is 2.1 h in data set [2], 4 h in data set [6] and 2.4 h in data set [5]. Moreover, the values for the clearance in [3] and in [7] were 10.2 mL/min/kg and 1.5 mL/min/kg, respectively. The values for the volume of distribution (Vd) in [4] and in [8] were 1.9 L/kg and 0.5 L/kg, respectively. Also, the PPB with Plasma is given as 0%.
